The results in this text go back to paper PMC4764579, “Structural insights into the mechanism of activation of the TRPV1 channel by a membrane-bound tarantula toxin” (eLife, 2016).

Positions of bridges follow the written chain, without caps; N, C: chain ends. Residues, ends and D or L forms follow the SMILES beside them.

The data set in a line: Membrane partitioning of toxins into lipid vesicles measured using Trp fluorescence. Type of data set: physicochemical. To be noted: Trp fluorescence, excitation 280 nm, F/F0 at 320 nm; LUVs 1:1 POPC:POPG extruded through 100 nm; toxin 2 or 5 µM in 10 mM HEPES, 1 mM EDTA, pH 7.0; available lipid 60% of total; fit of partition function; ± SEM, n = 3 or 4; SEM. An excerpt:
Motivated by the amphipathic character evident in the structure of DkTx, together with the placement of the toxin at the protein-lipid interface when bound to TRPV1, we investigated the interaction of DkTx and each of its two lobes with lipid membranes. For these experiments, we took advantage of the presence of a single conserved and solvent accessible Trp residue in loop 2 of both K1 and K2 (Figure 1C,D; W11 and W53), and used Trp fluorescence to monitor the partitioning of the toxin from the aqueous solution into the membrane environment ([Gupta et al., 2015]; [Ladokhin et al., 2000]; [Milescu et al., 2007]). When aqueous solutions of DkTx were excited at a wavelength of 280 nm, emission spectra with maxima at 353 nm were obtained (Figure 5A, left), as expected for Trp residues residing in such an environment. […] To quantify the extent of partitioning as a function of lipid concentration, we measured the relative fluorescence intensity in a blue-shifted region of the spectra (e.g. 320 nm) as a function of lipid concentration, and fit a partition function to the data to obtain a mole-fraction partition coefficient (Kx) of (2.3 ± 0.7) × 10^6, indicating an energetically favorable interaction of DkTx with lipid membranes (Figure 5A, right). This strong interaction of DkTx with membranes would facilitate binding of the toxin to the channel by increasing the local concentration of the toxin near the channel and by a reduction in the dimensionality of diffusion within the membrane ([Axelrod and Wang, 1994]).
Figure 5. Interaction of DkTx and toxin constructs with lipid membranes measured using Trp fluorescence. (A–E, left panel) Trp emission spectra of DkTx (A), K1 without linker (B), K2 (C), bivalent K1 (K1K1) (D) and bivalent K2 (K2K2) (E) in the absence (black) and presence (blue, 1.6 mM for DkTx, 2 mM for K1-ΔL and K1K1, and 3 mM for K2 and K2K2) of lipid vesicles (1:1 mix of POPC:POPG). (A–E, right panel) Relative fluorescence intensity at 320 nm (F/F0) as a function of available lipid concentrations (60% of total lipid concentration). Smooth curves correspond to partition functions with Kx = (2.3 ± 0.7) × 10^6 and F/F0^max = 2.65 ± 0.08 for DkTx, Kx = (3.9 ± 1.1) × 10^5 and F/F0^max = 2.63 ± 0.07 for K1-ΔL, Kx = (2.0 ± 0.3) × 10^4 and F/F0^max = 3.71 ± 0.40 for K2, Kx = (2.9 ± 0.3) × 10^6 and F/F0^max = 2.47 ± 0.03 for K1K1 and Kx = (8.1 ± 2) × 10^5 and F/F0^max = 2.77 ± 0.55 for K2K2. Error bars correspond to SEM (n = 3 or 4). Partition functions for K1-ΔL and K2 are shown as dotted lines for comparison in D and E, respectively. (F) Comparisons of mole-fraction partition coefficient (Kx) of toxins. 7G-DkTx denotes a construct of DkTx whose linker (PYVPVTT) is replaced with 7 Gly residues. Error bars correspond to SEM (n = 3 or 4). DOI: http://dx.doi.org/10.7554/eLife.11273.020 Figure 5—figure supplement 1. Interaction of K1-K2 chimeras with lipid membranes measured using Trp fluorescence. (A–E, left panel) Trp emission spectra of K1(D1N) (A), K1(K2L2) (B), K1(K2L3) (C), K1(K2L4) (D) and K1(K2CT) (E) in the absence (black) and presence (blue, 2 mM) of lipid vesicles (1:1 mix of POPC:POPG). (A–D, right panel) Relative fluorescence intensity at 320 nm (F/F0) as a function of available lipid concentrations (60% of total lipid concentration). Smooth curves correspond to partition functions with Kx = (1.76 ± 0.06) × 10^6 and F/F0^max = 3.79 ± 0.02 for K1(D1N), Kx = (4.77 ± 1.39) × 10^5 and F/F0^max = 1.31 ± 0.02 for K1(K2L2), Kx = (1.02 ± 0.04) × 10^4 and F/F0^max = 3.69 ± 0.02 for K1(K2L3), and Kx = (0.90 ± 0.04) × 10^6 and F/F0^max = 2.59 ± 0.02 for K1(K2L4). Error bar corresponds to SEM (n = 3 or 4). Smooth curve of K1-ΔL was shown as a dotted line for comparison throughout the figures. (F) Comparisons of mole-fraction partition coefficient (Kx) of toxins. Error bars correspond to SEM (n = 3 or 4). DOI: http://dx.doi.org/10.7554/eLife.11273.021 [drawing 10] […]
As for `CC[C@H](C)[C@@H]1NC(=O)[C@H](Cc2ccccc2)NC(=O)[C@H](CCC(=O)O)NC(=O)[C@H](CCSC)NC(=O)[C@@H]2CCCN2C(=O)[C@@H]2CSSC[C@@H]3NC(=O)[C@H](C(C)C)NC(=O)[C@H](CCC(=O)O)NC(=O)CNC(=O)[C@H](CCC(=O)O)NC(=O)[C@H](CCCCN)NC(=O)[C@H](C)NC(=O)[C@@H](NC(=O)[C@@H](N)CC(N)=O)CSSC[C@H](NC(=O)[C@H](CSSC[C@@H](C(=O)N[C@@H](CCCCN)C(=O)N[C@@H](CCCCN)C(=O)N[C@@H](Cc4ccc(O)cc4)C(=O)N[C@@H](CCCCN)C(=O)O)NC(=O)[C@H](Cc4c[nH]cn4)NC(=O)[C@@H]4CCCN4C1=O)NC(=O)[C@H](CCCCN)NC(=O)[C@H](CCCCN)NC(=O)CNC(=O)[C@H](Cc1c[nH]c4ccccc14)NC(=O)[C@H](CO)NC3=O)C(=O)N[C@@H](CC(=O)O)C(=O)N[C@@H](CC(C)C)C(=O)N[C@@H](CC(=O)O)C(=O)N[C@@H](CC(N)=O)C(=O)N[C@@H](Cc1ccccc1)C(=O)N[C@@H](Cc1ccc(O)cc1)C(=O)N2` [K1(D1N)] (H-NCAKEGEVCSWGKKCCDLDNFYCPMEFIPHCKKYK-OH; disulfide 2-16, 9-23, 15-31), the “mole-fraction partition coefficient (Kx)” value was “(1.76 ± 0.06) × 10^6”. Take `CC[C@H](C)[C@@H]1NC(=O)[C@H](Cc2ccccc2)NC(=O)[C@H](CCC(=O)O)NC(=O)[C@H](CCSC)NC(=O)[C@@H]2CCCN2C(=O)[C@@H]2CSSC[C@@H]3NC(=O)[C@H](C(C)C)NC(=O)[C@H](CCC(=O)O)NC(=O)CNC(=O)[C@H](CCC(=O)O)NC(=O)[C@H](CCCCN)NC(=O)[C@H](C)NC(=O)[C@@H](NC(=O)[C@@H](N)CC(=O)O)CSSC[C@H](NC(=O)[C@H](CSSC[C@@H](C(=O)N[C@@H](CCCCN)C(=O)N[C@@H](CCCCN)C(=O)N[C@@H](Cc4ccc(O)cc4)C(=O)N[C@@H](CCCCN)C(=O)O)NC(=O)[C@H](Cc4c[nH]cn4)NC(=O)[C@@H]4CCCN4C1=O)NC(=O)[C@H](CCCCN)NC(=O)[C@H](CO)NC(=O)CNC(=O)[C@H](Cc1c[nH]c4ccccc14)NC(=O)CNC3=O)C(=O)N[C@@H](CC(=O)O)C(=O)N[C@@H](CC(C)C)C(=O)N[C@@H](CC(=O)O)C(=O)N[C@@H](CC(N)=O)C(=O)N[C@@H](Cc1ccccc1)C(=O)N[C@@H](Cc1ccc(O)cc1)C(=O)N2` [K1(K2L2)] (H-DCAKEGEVCGWGSKCCDLDNFYCPMEFIPHCKKYK-OH; disulfide 2-16, 9-23, 15-31): the “mole-fraction partition coefficient (Kx)” value is reported as “(4.77 ± 1.39) × 10^5”.

In the case of `CC[C@H](C)[C@@H]1NC(=O)[C@H](Cc2ccccc2)NC(=O)[C@H](CCC(=O)O)NC(=O)[C@H](CCSC)NC(=O)[C@@H]2CCCN2C(=O)[C@@H]2CSSC[C@@H]3NC(=O)[C@H](C(C)C)NC(=O)[C@H](CCC(=O)O)NC(=O)CNC(=O)[C@H](CCC(=O)O)NC(=O)[C@H](CCCCN)NC(=O)[C@H](C)NC(=O)[C@@H](NC(=O)[C@@H](N)CC(=O)O)CSSC[C@H](NC(=O)[C@H](CSSC[C@@H](C(=O)N[C@@H](CCCCN)C(=O)N[C@@H](CCCCN)C(=O)N[C@@H](Cc4ccc(O)cc4)C(=O)N[C@@H](CCCCN)C(=O)O)NC(=O)[C@H](Cc4c[nH]cn4)NC(=O)[C@@H]4CCCN4C1=O)NC(=O)[C@H](CCCCN)NC(=O)[C@H](CCCCN)NC(=O)CNC(=O)[C@H](Cc1c[nH]c4ccccc14)NC(=O)[C@H](CO)NC3=O)C(=O)N[C@@H](Cc1c[nH]cn1)C(=O)NCC(=O)N[C@@H](CC(C)C)C(=O)N[C@@H](CC(=O)O)C(=O)N2` [K1(K2L3)] (H-DCAKEGEVCSWGKKCCHGLDCPMEFIPHCKKYK-OH; disulfide 2-16, 9-21, 15-29), the “mole-fraction partition coefficient (Kx)” value was “(1.02 ± 0.04) × 10^4”. `CC[C@H](C)[C@@H]1NC(=O)[C@H](Cc2ccccc2)NC(=O)[C@H](C)NC(=O)[C@H](CC(C)C)NC(=O)[C@@H]2CCCN2C(=O)[C@@H]2CSSC[C@@H]3NC(=O)[C@H](C(C)C)NC(=O)[C@H](CCC(=O)O)NC(=O)CNC(=O)[C@H](CCC(=O)O)NC(=O)[C@H](CCCCN)NC(=O)[C@H](C)NC(=O)[C@@H](NC(=O)[C@@H](N)CC(=O)O)CSSC[C@H](NC(=O)[C@H](CSSC[C@@H](C(=O)N[C@@H](CCCCN)C(=O)N[C@@H](CCCCN)C(=O)N[C@@H](Cc4ccc(O)cc4)C(=O)N[C@@H](CCCCN)C(=O)O)NC(=O)[C@H](Cc4ccc(O)cc4)NC(=O)[C@@H]4CCCN4C1=O)NC(=O)[C@H](CCCCN)NC(=O)[C@H](CCCCN)NC(=O)CNC(=O)[C@H](Cc1c[nH]c4ccccc14)NC(=O)[C@H](CO)NC3=O)C(=O)N[C@@H](CC(=O)O)C(=O)N[C@@H](CC(C)C)C(=O)N[C@@H](CC(=O)O)C(=O)N[C@@H](CC(N)=O)C(=O)N[C@@H](Cc1ccccc1)C(=O)N[C@@H](Cc1ccc(O)cc1)C(=O)N2` [K1(K2L4)] (H-DCAKEGEVCSWGKKCCDLDNFYCPLAFIPYCKKYK-OH; disulfide 2-16, 9-23, 15-31): the “mole-fraction partition coefficient (Kx)” value is reported as “(0.90 ± 0.04) × 10^6”.

`CC[C@H](C)[C@@H]1NC(=O)[C@H](Cc2ccccc2)NC(=O)[C@H](CCC(=O)O)NC(=O)[C@H](CCSC)NC(=O)[C@@H]2CCCN2C(=O)[C@@H]2CSSC[C@@H]3NC(=O)[C@H](C(C)C)NC(=O)[C@H](CCC(=O)O)NC(=O)CNC(=O)[C@H](CCC(=O)O)NC(=O)[C@H](CCCCN)NC(=O)[C@H](C)NC(=O)[C@@H](NC(=O)[C@@H](N)CC(=O)O)CSSC[C@H](NC(=O)[C@H](CSSC[C@@H](C(=O)N[C@@H](CCCCN)C(=O)N[C@@H](CCCCN)C(=O)N[C@@H](Cc4ccc(O)cc4)C(=O)N[C@@H](CCCCN)C(=O)O)NC(=O)[C@H](Cc4c[nH]cn4)NC(=O)[C@@H]4CCCN4C1=O)NC(=O)[C@H](CCCCN)NC(=O)[C@H](CCCCN)NC(=O)CNC(=O)[C@H](Cc1c[nH]c4ccccc14)NC(=O)[C@H](CO)NC3=O)C(=O)N[C@@H](CC(=O)O)C(=O)N[C@@H](CC(C)C)C(=O)N[C@@H](CC(=O)O)C(=O)N[C@@H](CC(N)=O)C(=O)N[C@@H](Cc1ccccc1)C(=O)N[C@@H](Cc1ccc(O)cc1)C(=O)N2` [K1-ΔL] (H-DCAKEGEVCSWGKKCCDLDNFYCPMEFIPHCKKYK-OH; disulfide 2-16, 9-23, 15-31): the “mole-fraction partition coefficient (Kx)” value is given as “(3.9 ± 1.1) × 10^5”.
